# Laboratory results reported in publication PMC5650337, “A peptidomimetic with a chiral switch is an inhibitor of epidermal growth factor receptor heterodimerization” (Oncotarget, 2017).
# Like-named read-outs stand apart in the source and are kept apart here. Where a SMILES comes first, the peptide text is derived from it.
# Experiments:
# [1] = target: T1, HER2:HER3 dimerization in transfected U2OS cells (Homo sapiens, UniProt P04626); assay: Enzyme fragment complementation (PathHunter) assay; assay type: cell-based; conditions: in the presence of 0.3 µM NRG1
# T1 construct: host or cells: U2OS
# Description: A Pathhunter assay kit was obtained from DiscoverX, and enzyme fragment complementation assay was carried out. U2OS cells transfected with HER3:HER2 were used for the assay. After cells were attached to the wells, they were incubated with compound 18 and controls at different concentration in the presence of neuregulin-1 (NRG-1) at 0.3 µM concentration. After 24 h of incubation, reagents were added, and luminescence was measured and compared with a control without any compound. A plot of luminescence versus concentration was obtained to measure the dimerization of HER3:HER2 and its inhibition by compound 18.
# [2] = test system: phosphorylated HER2 in Calu-3 cells; assay: Western blot of phosphorylated HER2; assay type: cell-based
# Description: (§1) BT-474, Calu-3, and SKOV-3 cells were treated with compounds at 1 µM and lapatinib (positive control) at 0.07 µM. Cells without any treatment and cells treated with control compound were employed as negative controls in these studies. Cells were incubated for 36 h, washed and trypsinized. The cell lysate was prepared using cell lysis buffer containing protease inhibitor and phosphatase inhibitor. The protein concentration in each sample was determined using Bradford’s assay. 40 μg of protein from each sample was loaded on Novex® 4–20% tris-glycine gels and western blot analysis was carried out as described in our previous publication. Antibodies for the detection of total HER2 protein (t-HER2) and phosphorylated HER2 protein (p-HER2) were used at 1:3000 dilutions. After addition of the substrate and enhancer solutions from a Super Signal-enhanced chemiluminescence kit (Pierce, Rockford, IL) to the membrane, the images were captured using C-Digit Blot Scanner (LI-COR Biotechnology, Lincoln, NE). A representative Western blot image was used for the final presentation.
# [3] = test system: phosphorylated HER2 in BT-474 cells; assay: Western blot of phosphorylated HER2; assay type: cell-based; conditions: 0.5 and 1 µM
# Description: as §1
# [4] = test system: HER2 phosphorylation in tumor samples; assay: Western blot of xenograft tumor samples; assay type: in vivo, athymic nude mice; conditions: treated tumors compared to control
# Description: Western blot and PLA assay were carried out on tumor sections as described before. Immunoblot analysis was performed to evaluate the levels of total HER2 and phosphorylated HER2. Tumor sections were deparaffinized using xylene and rehydrated with decreasing concentrations of ethanol. Antigen retrieval on the microsections of the breast tumors was done in a steaming sodium citrate buffer (10 mM, 0.05% Tween-20, pH 6.0) for 5 min. The tumor sections were then used to analyze inhibition of HER2:HER3 dimerization using PLA.
# [5] = target: T2, HER2 protein on BT-474 cells (Homo sapiens, UniProt P04626); assay: Competitive binding assay with FITC-compound 5; conditions: 0.1 to 50 µM with 50 µM FITC-compound 5, BT-474 cells
# T2 construct: incubated with HER2 expressing BT-474 cells lines along with fixed amount of FITC-compound 5; host or cells: BT-474
# Description: BT-474 cell lines were coated on 96 well plates and after 24 hrs cells were washed. Varying amounts of compound 18 (0.1 to 50 µM) was incubated with HER2 expressing BT-474 cells lines along with fixed amount of FITC-compound 5 (50 µM). […] Readings were in triplicate. A graph of relative fluorescence with respect to concentration of compound 18 was plotted. As control fluorescence from FITC-compound 5 and cells without any treatment were used.
# SKOV-3 cells = conditions: read-out: IC50 SKOV-3(+); HER2-overexpressing ovarian cancer cells, 72 h
# Description: (§2) Cellular assays were performed using BT-474, SKBR-3, Calu-3, MCF-7, and MCF-10A cells (ATCC). Antiproliferative activity was measured by CellTiter-Glo®, [49] a luminescence-based cell viability assay. In a 96-well plate, 1 × 10^4 cells/well were seeded and incubated overnight at 37°C and 5% CO2. Stock solutions of peptidomimetics were prepared by dissolving 1.5 mg/mL of compounds in DMSO. Stock solution of the compounds were diluted using the serum-free medium to prepare solutions of different concentrations of compounds. Compounds in the medium were added to the wells in triplicate and incubated for 72 h. As controls, cells treated with 1% sodium dodecyl sulfate and 1% dimethyl sulfoxide were used. At the end of the experiment, CellTiter-Glo® reagent was added, and luminescence was measured by a plate reader. A dose response curve was generated using luminescence vs concentration of compounds and IC50 values were obtained using Prism® (GraphPad Software, La Jolla, CA). Experiments were repeated at least three times to obtain standard deviation values.
# Calu-3 cells = conditions: read-out: IC50 Calu-3 (+); HER2-overexpressing lung cancer cells, 72 h
# Description: as §2
# [6] = test system: NCI-H1975 cells (EGFR L858R/T790M)
# Description: Antiproliferative activity was measured by CellTiter-Glo®, [49] a luminescence-based cell viability assay. In a 96-well plate, 1 × 10^4 cells/well were seeded and incubated overnight at 37°C and 5% CO2. Stock solutions of peptidomimetics were prepared by dissolving 1.5 mg/mL of compounds in DMSO. Stock solution of the compounds were diluted using the serum-free medium to prepare solutions of different concentrations of compounds. […] As controls, cells treated with 1% sodium dodecyl sulfate and 1% dimethyl sulfoxide were used. At the end of the experiment, CellTiter-Glo® reagent was added, and luminescence was measured by a plate reader. A dose response curve was generated using luminescence vs concentration of compounds and IC50 values were obtained using Prism® (GraphPad Software, La Jolla, CA). Experiments were repeated at least three times to obtain standard deviation values.
# Description for SKBR-3 cells: as §2
# T1 sequence (P04626 23-1255): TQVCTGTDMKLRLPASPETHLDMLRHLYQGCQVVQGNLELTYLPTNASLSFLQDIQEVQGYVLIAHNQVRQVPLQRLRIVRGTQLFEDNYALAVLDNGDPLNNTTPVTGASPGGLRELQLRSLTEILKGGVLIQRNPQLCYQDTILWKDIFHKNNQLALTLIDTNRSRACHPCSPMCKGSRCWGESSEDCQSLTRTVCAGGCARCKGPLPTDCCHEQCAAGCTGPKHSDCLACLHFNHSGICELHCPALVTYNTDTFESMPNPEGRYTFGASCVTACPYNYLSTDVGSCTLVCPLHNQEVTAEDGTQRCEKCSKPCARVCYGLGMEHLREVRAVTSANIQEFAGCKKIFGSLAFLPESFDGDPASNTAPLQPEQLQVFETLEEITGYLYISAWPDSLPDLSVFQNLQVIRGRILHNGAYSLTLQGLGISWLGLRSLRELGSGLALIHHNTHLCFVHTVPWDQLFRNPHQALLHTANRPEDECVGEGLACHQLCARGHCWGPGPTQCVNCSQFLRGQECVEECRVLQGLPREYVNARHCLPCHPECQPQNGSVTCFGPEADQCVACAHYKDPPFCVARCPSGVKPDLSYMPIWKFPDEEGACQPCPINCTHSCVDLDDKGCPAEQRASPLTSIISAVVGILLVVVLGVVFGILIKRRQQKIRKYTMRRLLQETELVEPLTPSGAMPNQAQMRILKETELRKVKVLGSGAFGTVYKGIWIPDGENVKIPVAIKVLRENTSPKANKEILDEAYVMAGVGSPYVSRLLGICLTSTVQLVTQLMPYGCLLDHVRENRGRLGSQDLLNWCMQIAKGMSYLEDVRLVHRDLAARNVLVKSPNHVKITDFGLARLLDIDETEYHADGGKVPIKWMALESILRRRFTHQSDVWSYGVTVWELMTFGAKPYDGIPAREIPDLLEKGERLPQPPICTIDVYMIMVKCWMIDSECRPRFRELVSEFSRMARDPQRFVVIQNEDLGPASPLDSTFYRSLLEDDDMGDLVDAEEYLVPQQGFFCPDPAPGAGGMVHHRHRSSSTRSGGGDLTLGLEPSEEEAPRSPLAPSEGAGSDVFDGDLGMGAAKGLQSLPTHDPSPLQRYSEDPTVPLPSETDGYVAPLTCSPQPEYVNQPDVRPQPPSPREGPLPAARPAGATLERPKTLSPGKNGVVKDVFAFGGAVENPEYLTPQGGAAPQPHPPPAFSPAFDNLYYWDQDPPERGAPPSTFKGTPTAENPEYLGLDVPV
# T2 sequence (P04626 23-1255): as above
compound,measurement,setting,value
"N=C(N)NCCC[C@@H]1NC(=O)[C@H]2CCCN2C(=O)[C@@H]2CCCN2C(=O)[C@H](CCCNC(=N)N)NC(=O)C[C@H](c2cccc3ccccc23)NC(=O)[C@H](Cc2ccccc2)NC(=O)[C@H](CC(=O)O)NC(=O)[C@H](CC(=O)O)NC(=O)[C@H](Cc2ccccc2)NC(=O)C[C@H](c2cccc3ccccc23)NC1=O [compound 18, Cyclo(1,10)P^1p^2R^3(R-Anapa)^4F^5D^6D^7F^8(R-Anapa)^9R^10] (HELM PEPTIDE1{P.[dP].R.[O=C(C[C@@H](N[*:1])c1cccc2ccccc12)[*:2]].F.D.D.F.[O=C(C[C@@H](N[*:1])c1cccc2ccccc12)[*:2]].R}$PEPTIDE1,PEPTIDE1,1:R1-10:R2$$$V2.0)",Inhibition of HER2:HER3 dimerization (PathHunter),[1],dimerization of HER2:HER3 is inhibited in a concentration-dependent manner
same,Phosphorylation of HER2 (Western blot),[2],decreases the phosphorylation of HER2 in a concentration-dependent manner
same,Phosphorylation of HER2 (Western blot),[3],decreases the phosphorylation of HER2 in a concentration-dependent manner
same,HER2 phosphorylation in tumor samples (Western blot),[4],decrease in HER2 phosphorylation
same,Competition with FITC-compound 5 (cell fluorescence),[5],decrease in the fluorescence intensity of cells
same,IC50,SKOV-3 cells,853 ± 102 nM
same,IC50,Calu-3 cells,18 ± 13 nM
same,Synergistic effect with erlotinib (isobologram),"[6]; NCI-H1975, compound 18 plus erlotinib",synergistic effect
same,IC50,"[6]; read-out: IC50 in NCI-H1975, EGFR L858R/T790M lung cancer cell line",4850 nM
same,IC50,"SKBR-3 cells; read-out: Antiproliferative activity (IC50 µM) SKBR-3 cells, Table 2, compound 18 and diastereoisomers",0.194 ± 0.046 µM
same,IC50,"SKBR-3 cells; read-out: IC50 SKBR-3(+), HER2-overexpressing breast cancer cells, 72 h",0.194 ± 0.046 µM
